This is an account of results in article PMC6362118, “Pharmacophore-guided discovery of CDC25 inhibitors causing cell cycle arrest and tumor regression” (Scientific Reports, 2019).

The term Ki denotes a dissociation constant, usually derived from enzyme kinetics or from competition with a known ligand.

Assay [1] concerns Apc/K-Ras intestinal organoids. The assay is described as follows: Growth and differentiation of Apc/K-Ras intestinal organoids. In kind it is cell-based, mouse. The procedure: Intestinal crypts were isolated from Apc/K-Ras animals bearing Apc^1638N and villin-driven K-Ras^G12V alleles with slight modifications[36] of a previously described method. Briefly, crypts were isolated and purified, embedded in 50 μl matrigel drops (Corning, 356231) and overlaid with 500 μl organoid medium Advanced DMEM/F12 (Life Technologies, 11320-082) containing 2 mM GlutaMAX (Life Technologies, 35050-061), 10 mM HEPES buffer (Sigma, 83264-100ML-F), 0.5 U/ml Penicillin/Streptomycin (Life Technologies, 15070-063), N2 (Life Technologies, 17502-048), B27 (Life Technologies, 12587-010)]. Organoids were expanded for 5 days in growth factor supplemented medium containing 50 ng/ml mEGF (Life Technologies, PMG8041), 100 ng/ml mNoggin (Peprotech, 250–38) and 500 ng/ml hRSPO1 (R&D, 4645-RS-025). EGF and R-spondin were subsequently removed to select for organoids that had lost the wild-type Apc copy. The medium was changed every 2 days. Established mutant lines were passaged every four days by mechanical disruption with a bent P1000 pipette tip.
(§1) 34 SUPPLEMENTARY MATERIALS AND METHODS
(§2) 36 Antibodies and chemicals - The following antibodies were used for Western blot:
(§3) 37 Rabbit monoclonal antibodies to CDK1-pThr14 (#2543), CDK1-pTyr15 (#9111), Histone
(§4) 39 Technology (Beverly, MA, USA). Mouse monoclonal antibodies to CDC25A (F-6, sc-
(§5) 41 from Santa Cruz Biotechnology (Santa Cruz, CA, USA). The mouse monoclonal
(§6) 42 antibody MPM2 (05-368) was from Upstate (Lake Placid, NY, USA). The mouse
(§7) 43 monoclonal antibody to the HA tag (HA.11, MMS-101P) was from BioLegend (S. Diego,
(§8) 44 CA, USA). The rabbit polyclonal antibody to PARP-1 (#227244) was obtained from
(§9) 45 Abcam. HRP-conjugated anti-mouse and anti-rabbit secondary antibodies were obtained
(§10) 46 from GE-Healthcare (Otelfingen, Switzerland). HRP-conjugated IgG-k-BP was
(§11) 47 purchased from Santa Cruz Biotechnology (Santa Cruz, CA, USA).
(§12) 48 The following antibodies were used for immunofluorescence on a Zeiss LSM 710
(§13) 49 confocal microscope: mouse monoclonal to beta-catenin (Cl. 14, BD transduction Lab.),
50 rabbit polyclonal to lysozyme (A0099, Dako). […]

The subject of assay [2] is U2OS Tet-OFF cells expressing HA-CDC25A. Briefly: Cell viability of U2OS Tet-OFF cells overexpressing HA-CDC25A. In kind it is cell-based. The conditions noted are these: grown in the absence of tetracycline (HA-CDC25A induced). The protocol:
65 Enzymatic assays - CDC25A, CDC25B and CDC25C were appropriately diluted in 10
66 mM Tris-HCl pH 8.0, 50 mM NaCl and assayed in 20 mM Tris-HCl pH 8.0, 75 mM
67 NaCl, 0.5 mM EGTA, 1 mM DTT, 0.1 mg/ml BSA and defined concentrations of
68 compounds. Reactions were started by addition of the substrate OMFP (0.1 mM). Assays
69 were carried out at room temperature in duplicate or triplicate using transparent-bottom,
(§14) 70 V-shaped 96 well plates and read at defined intervals on a Molecular Devices
71 SpectraMax microplate reader (ex: 490 nm / em: 525 nm). IC50 and kinetic parameters
72 calculated from Lineweaver-Burk double-reciprocal plots of the data were obtained using
73 GraphPad Prism software.
75 Cell culture - Wild-type HeLa and Kyoto HeLa cells stably expressing mCherry-H2B
76 were maintained in DMEM+L-Glutamine (Gibco, Life Technologies, USA)
77 supplemented with 5% fetal calf serum (FCS) (Gibco) and penicillin-streptomycin (100
78 U/ml - 100 µg/ml) (Gibco). A549 and Colo741 were grown and maintained like HeLa
79 cells but with 10% FCS. HCT116 were maintained in McCoy’s medium supplemented
80 with 10% FCS and penicillin-streptomycin. U2OS-Tet-OFF cells expressing HA-CDC25
81 were grown and maintained in DMEM+L-Glutamine, 10% Tet-free FCS and penicillin- […]
(§15) 88 assessed as described 4. Data were plotted with Prism 7® and analyzed by non-linear […]

For assay [3], the target named is T1, CDC25B (Homo sapiens, UniProt P30305).
T1 construct: GST (pGEX vector) (N); made in house; host or cells: E. coli BL21
T1 sequence (P30305 whole entry): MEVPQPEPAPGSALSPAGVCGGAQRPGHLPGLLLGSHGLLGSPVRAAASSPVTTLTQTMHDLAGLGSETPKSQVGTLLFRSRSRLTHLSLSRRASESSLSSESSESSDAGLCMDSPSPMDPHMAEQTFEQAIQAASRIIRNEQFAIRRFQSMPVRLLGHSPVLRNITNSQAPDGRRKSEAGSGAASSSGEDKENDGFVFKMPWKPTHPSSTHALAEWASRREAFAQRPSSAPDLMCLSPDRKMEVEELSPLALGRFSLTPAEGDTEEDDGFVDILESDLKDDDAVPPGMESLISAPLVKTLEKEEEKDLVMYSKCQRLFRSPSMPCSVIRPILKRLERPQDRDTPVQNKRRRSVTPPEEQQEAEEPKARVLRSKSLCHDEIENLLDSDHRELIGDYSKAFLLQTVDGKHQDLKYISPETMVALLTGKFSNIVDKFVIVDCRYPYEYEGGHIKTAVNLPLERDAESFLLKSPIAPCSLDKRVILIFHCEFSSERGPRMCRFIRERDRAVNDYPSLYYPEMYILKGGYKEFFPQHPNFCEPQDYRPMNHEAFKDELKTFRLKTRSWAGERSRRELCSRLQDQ
The assay is described as follows: Enzymatic assay (OMFP substrate) on recombinant CDC25B. As to conditions: mixed-model inhibition equation. In kind it is biochemical.
Text: as §1, §2, §3, §4, §5, §6, §7, §8, §9, §10, §11, §12, §13
(§16) 50 rabbit polyclonal to lysozyme (A0099, Dako). Secondary antibodies were: Alexa 488 […]
as §14
(§17) 71 SpectraMax microplate reader (ex: 490 nm / em: 525 nm). […]
(§18) 72 calculated from Lineweaver-Burk double-reciprocal plots of the data were obtained using […]
as §15

In assay [4] the target is T2, CDC25C (Homo sapiens, UniProt P30307).
T2 construct: GST (pGEX vector) (N); made in house; host or cells: E. coli BL21
T2 sequence (P30307 whole entry): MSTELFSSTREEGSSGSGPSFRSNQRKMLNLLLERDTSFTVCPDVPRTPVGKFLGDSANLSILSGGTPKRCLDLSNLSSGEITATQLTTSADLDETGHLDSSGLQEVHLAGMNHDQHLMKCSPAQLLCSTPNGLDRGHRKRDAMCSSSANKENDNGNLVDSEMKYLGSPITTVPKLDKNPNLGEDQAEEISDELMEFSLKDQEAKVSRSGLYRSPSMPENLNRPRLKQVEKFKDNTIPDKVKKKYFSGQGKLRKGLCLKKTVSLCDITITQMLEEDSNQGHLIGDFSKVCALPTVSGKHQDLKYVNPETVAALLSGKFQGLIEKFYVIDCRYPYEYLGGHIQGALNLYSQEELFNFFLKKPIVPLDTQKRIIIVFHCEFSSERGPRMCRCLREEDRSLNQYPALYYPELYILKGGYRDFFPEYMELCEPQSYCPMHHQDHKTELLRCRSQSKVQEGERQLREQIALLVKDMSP
Briefly: Enzymatic assay (OMFP substrate) on recombinant CDC25C. The class given is biochemical. The conditions noted are these: mixed-model inhibition equation.
Text: as §1, §2, §3, §4, §5, §6, §7, §8, §9, §10, §11, §12, §13, §16, §14, §17, §18, §15

For `O=C1C(c2ccc(O)cc2O)=CC(=O)c2c(O)cccc21` [UPD-176, 5-hydroxy-2-(2,4-dihydroxyphenyl)naphthalene-1,4-dione], the “expression of lysozyme (differentiation marker), confocal immunofluorescence” value in assay [1] (5 μM) is listed as “augmented expression of lysozyme”. Moreover, the organoid morphology entry in assay [1] (5 μM, 48 h) is reported as “growing spheroids partially invaginated”. In assay [1] (higher doses (data not shown)), the organoid death entry is recorded as “massive death”. The “sensitivity of CDC25A overexpressing cells (viability)” value in assay [2] was “remained sensitive”.
Regarding `COc1cccc(SC2=CC(=O)c3cccc(O)c3C2=O)c1` [UPD-795, 2-(3-methoxyphenylthio)-8-hydroxynaphthalene-1,4-dione], the results for the Ki in assay [3] and in assay [4] were 440 ± 100 nM and 850 ± 300 nM, respectively.
